Tests used:
[1] = system: PC3 MUC1-negative prostate cancer cells; assay: RT-PCR of stem cell markers in PC3 cells cultured with agent; assay type: cell-based, human
Experimental: (§1) Example 3: Agents that are able to maintain stem cells in the naïve state transform cancer cells into cancer stem cells wherein only a small number of cells are required for engraftment. Cancer cells were cultured according to standard practice. In the controls, the cancer cells were cultured in their normal media: RPMI for T47D breast cancer cells, DU145 and PC3 prostate cancer cells. However, the test agents, recombinant proteins human NME1 dimers, bacterial HSP593 NME1 dimers, human NME7-AB and 2i, were added to a serum-free minimal media to eliminate potential interference from the many growth factors and cytokines in serum.
(§2) To this serum-free minimal media, rhNME1 (aka NM23) was added to a final concentration of 8 nM, or bacterial HSP593 recombinant NME1 was added to a final concentration of 8 nM, or rhNME7-AB was added to a final concentration of 4 nM, or 2i inhibitors, PD0325901 and CHIR99021, which inhibit the MAP kinase pathway and GSK3, respectively, were added to a final concentration of 3 μM and 1 μM.
PC3 MUCl-negative prostate cancer cells were also tested for their ability to transform into cancer stem cells when cultured in agents that are able to maintain stem cells in the naïve state. PC3 cells were cultured as described above with either human NME1 dimers, bacterial NME1 dimers or NME7-AB. […] Thus, the RT-PCR measurements of the cancer stem cell markers may be lower because measurements will be the average of transformed cells and non-transformed cells.

[2] = system: MUC1-positive T47D breast cancer cells; assay: RT-PCR of cancer stem cell markers and chromatin rearrangement factors in T47D cells cultured in serum-free minimal media with agent; assay type: cell-based, human
Experimental: as §1
Serum-free Minimal Media 500 mL includes the following components: 394 mL DMEM/F12, GlutaMAX; 100 mL Knockout™ Serum Replacement; 5.0 mL 100×MEM Non-essential Amino Acid Solution; 0.9 mL P-mercaptoethanol, 55 mM stock.
as §2
When a rho kinase inhibitor, “Ri” or “ROCi”, was added it was Y27632 from Stemgent (Cambridge, Mass.), added immediately before use to a final concentration of 10 uM.
Example 3a: Breast cancer T47D cells were cultured either in the traditional RPMI growth media or in a minimal stem cell media to which was added either human NME1 dimers, also known as NM23-H1, bacterial HSP593 NME1 dimers, human NME7-AB, or kinase inhibitors known as ‘2i’. What these agents have in common is that they are each able to promote the growth of stem cells in the naive state or are able to revert primed state stem cells to the less mature naive state. We observed that some of the T47D cancer cells cultured in any of these agents became non-adherent. These ‘floaters’ were also morphologically different. The addition of a rho kinase inhibitor, called ‘Ri’ or ‘ROCP here caused most of the cells to remain attached to the surface. […] When a rho kinase inhibitor is added, all the cells remain attached but the RT-PCR measurements indicate that the resultant measure is of a mixture of the cells that were transformed and those that were not or were not yet.
Example 3c: In this example, the effect of ‘2i’ inhibitors on cancer cells was tested. Recall that 2i is the name given to 2 small molecules, […] that inhibit the MAP kinase pathway and GSK3 respectively. […] In this experiment, we cultured MUCl-positive T47D breast cancer cells in minimal media to which was added either 2i or NME7-AB.

[3] = system: Human HES-3 embryonic stem cells; assay: Human embryonic stem cell culture with NME protein as only growth factor; assay type: cell-based; conditions: serum-free minimal base media, agent as the only growth factor or cytokine
Excerpt: Factors that are able to maintain stem cells in the naive state are also able to transform cells to a cancer-like or stem-like state and are also able to transform cancer cells to a cancer stem cell state or a more metastatic state. Herein, we have shown several examples of bacterial NME1 being able to function like human NME1 dimers, which are also able to function like NME7 or NME7-AB. However, the primary example that these factors function in a very similar way is their ability to promote the growth of stem cells, inhibit differentiation and maintain them in the naive state. […] Human HES-3 embryonic stem cells were cultured in a serum-free minimal base media with either HSP 593, human NME1 or NME7-dimers or human NME7-AB as the only growth factor or cytokine. […] Several examples have been presented here that indicate that contacting cells with an agent or agents that are able to revert stem cells from the primed state to the less mature naive state are also able to revert a wide variety of cell types to a less mature state: somatic cells to stem or progenitor cells or cancer cells to more metastatic state also called cancer stem cell state. Therefore, the invention is not meant to be limited to a specific cell type or a specific cancer cell type.

human fibroblasts = assay: RT-PCR of stem/cancer markers and chromatin rearrangement factors in fibroblasts cultured with NME proteins; assay type: cell-based; conditions: after 15-20 days in culture
Experimental: Agents that are able to maintain stem cells in the naive state are also able to transform somatic cells to a cancer or stem-like state. Human NME1 dimer or human NME7 are able to make somatic cells revert to a less mature state, expressing stem and cancer cell markers. Bacterial NME from HSP 593 was tested alongside the human homologs to determine if it could mimic their function by being able to revert somatic cells to a cancer-like state. Human fibroblasts were cultured in a serum-free minimal base media with either HSP 593, human NME1 dimers or human NME7-AB as the only growth factor or cytokine. […] Recalling that stem cells and metastatic cancer cells can grow anchorage-independently, we repeated the experiments but this time a rho kinase inhibitor was added to one set of cells to make the cells adhere to the surface. […] Photos of the experiment show the dramatic change in morphology as the fibroblasts revert when cultured in human or bacterial NME, FIGS. 52-59. The relative order of efficiency of reverting somatic cells to a less mature state was NME7>NME1 dimers >NME1 bacterial. […] However, Bacterial NME from HSP 593 apparently up-regulates expression of human NME7 and NME1.
Example 3d: In this example, fibroblast cells were cultured in the presence of recombinant human NME1/NM23 dimers, bacterial HSP593 NME1 dimers or NME7-AB. The fibroblasts were cultured in their normal media as a control, which is for 500 mL, 445 mL DMEM high glucose base media, 5 mL GlutaMAX and 50 mL of fetal bovine serum (FBS). After 15-20 days in culture with either NME1/NM23 dimers, bacterial HSP593 NME1 dimers or NME7-AB, the morphology of the cells completely changed so that they no longer were recognizable as fibroblasts. […] Here, ‘minus ROCi’ refers to cells that became non-adherent and floated off the surface.

[4] = system: DU145 MUC1-positive prostate cancer cells; assay: RT-PCR of cancer stem cell markers in DU145 cells cultured with agent; assay type: cell-based, human; conditions: after 9-10 passages; FIG. 11b
Experimental: as §1, §2
Example 3b: Prostate cancer cells were also cultured as described above with either human NME1 dimers, bacterial NME1 dimers, NME7-AB, or 2i inhibitors. […] Thus, the RT-PCR measurements of the cancer stem cell markers are lower than that of the T47D cells, which could be explained by it being the measure of transformed cells and non-transformed cells. In the case of breast cancer cells, we were able to isolate the fully transformed cancer stem cells by collecting the floating cells, but were not able to do so here. DU145 MUC1-positive prostate cancer cells were cultured in RPMI media as a control and in minimal media to which was added recombinant human NME1/NM23 dimers, bacterial HSP593 dimers, or human NME7-AB. […] There was about a 2-8-fold increase in OCT4, MUC1 and CDH1/E-cadherin. However, after serial passaging under these same culture conditions, the increases in expression of cancer stem cell markers became more pronounced. We reasoned that serial passaging allowed more time for cells to transform since we could not rapidly collect floating cells.

NME1 dimers: recombinant human NM23, also called NME1, dimers that bear the 5120G mutation that stabilizes dimers
expression of stem cell markers SOX2, OCT4 and NANOG ([1]; after passage in agent, FIG. 12a): modest increases
expression of cancer stem cell or stem cell markers ([1]; serial passaging in the media, FIG. 12b): decreased
expression of CDH1 (E-cadherin), MUC1 and NANOG ([2]; FIG. 7): increases
expression of CXCR4, SOX2 and OCT4 ([2]; FIG. 7): dramatic increases
expression of stem cell markers KLF2 and KLF4 ([2]; FIG. 7): modest increases
expression of MBD3, CHD4, BRD4 and JMJD6 ([2]; cancer cells cultured in agent, FIG. 13, FIG. 14): naturally suppressed
support of human stem cell growth [3]: fully supported human stem cell growth
expression of stem cell marker genes OCT4 and NANOG (human fibroblasts; FIG. 15): greatly increased expression
expression of BRD4, JMJD6, MBD3 and CHD4 (human fibroblasts; FIG. 16): decreased expression
expression of NANOG and OCT4 [4]: significant increases
increase in the expression of CDH1/E-cadherin [4]: 6 fold
